Measured values from publication PMC8277899, “A novel RyR1-selective inhibitor prevents and rescues sudden death in mouse models of malignant hyperthermia and heat stroke” (Nature Communications, 2021).
“And” between values parts separate entries of the source, which are not always exact repeats. Equal entries are not always repeated. Where two headings read alike, the source gives them in different places.

System: soleus muscles from R2509C mice
Experiment: Muscle force in vitro, soleus from R2509C mice (caffeine and heat contracture, twitch, tetanus)
Assay type: cell-based, mouse
Settings: for inhibition at 3 µM: Mus musculus, soleus (WT and R2509C groups)

SMILES: CCCCCCCCn1cc(C(=O)O)c(=O)c2cc3c(cc21)OCO3 [Cpd1, 6,7-(methylenedioxy)-1-octyl-4-quinolone-3-carboxylic acid]
- inhibition at 3 µM (at 100 Hz, read-out: inhibition of tetanic contraction force): 35%
- inhibition at 3 µM (read-out: inhibition of twitch contraction force): 72%
- increase in basal stress in response to caffeine (R2509C soleus, 3 μM Cpd1, caffeine 20 mM): 0.5836 and 0.5932 and 0.4496 and 0.3389 and 0.4718
- effect on caffeine-induced contracture tension (R2509C soleus, pretreatment 3 µM, 20 mM caffeine): decreased
- effect on heat-induced contracture (R2509C soleus, pretreatment 3 µM, 42 °C): significantly reduced
